{
  "source": "patent US6180599A",
  "about": "“Pharmaceutical composition, containing medium-chain fatty acids as active ingredients, for dental caries and periodontal disease” (priority 1997, dated 2001)",
  "key": {"[1]": {"system": "cariogenic plaque bacteria (standard strains)", "assay": "Inhibitory effect of acid production, standard strains", "assay_type": "cell-based, Streptococcus, Lactobacillus and Actinomyces", "settings": "ranking; FIG. 1", "method": "In order to identify the action by which medium-chain fatty acids inhibit acid production, the inhibitory effect and concentration of acid production were determined in seven kinds of standard cariogenic plaque bacteria. Also, the inhibitory effect of acid production for 20 kinds of cariogenic plaque bacteria, separated from the human oral cavity, was assayed. Liquid culture media used were: Todd-Hewitt broth of Streptococcus, Lactobacilli MRS broth of Lactobacillus and Brain Heart Infusion broth of Actinomyces. […] The final pH of the culture medium was measured after culturing for 24^~ 48 hours in 10% CO2 incubator."}, "[2]": {"system": "cariogenic plaque bacteria (standard strains)", "assay": "Inhibitory effect of bacterial growth, standard strains", "assay_type": "cell-based, Streptococcus, Lactobacillus and Actinomyces", "settings": "ranking; FIG. 3", "method": "In order to evaluate how medium-chain fatty acids influence bacterial growth of cariogenic plaque bacteria, the influence on each bacteria was evaluated after selecting seven kinds of bacterial strains as standard bacteria among cariogenic plaque bacteria. […] The results that medium-chain fatty acids have on influencing bacterial growth of cariogenic plaque bacteria is shown in FIG. 3. And the result of measuring inhibitory effect of bacterial growth of 20 kinds of cariogenic plaque bacteria separated from the human oral cavities is shown in FIG. 4."}, "[3]": {"system": "cariogenic plaque bacteria", "assay": "Inhibitory effect on extracellular polysaccharide synthesis (summary)", "assay_type": "cell-based, Streptococcus, Lactobacillus and Actinomyces", "settings": "1 mM; ranking", "method": "(§1) In order to identify the effect by which medium-chain fatty acids inhibit plaque matrix formation, inhibitory effect and concentration of extracellular polysaccharide synthesis were determined in seven kinds of standard cariogenic plaque bacteria. Also, the inhibitory effect of extracellular polysaccharide synthesis for 20 kinds of cariogenic plaque bacteria, separated from the human oral cavity, was measured. Liquid culture media used were: Todd-Hewitt broth of Streptococcus, Lactobacilli MRS broth of Lactobacillus and Brain Heart Infusion broth of Actinomyces. 0.1 ml of bacterial (or cell) suspension (OD600 =0.5) of each bacteria was inoculated to 5.9 ml of culture media containing 1 mM of medium-chain fatty acids and 2% of glucose, and was cultured for 24^~ 48 hours in 10% CO2 incubator. After culturing, the resultant was centrifuged to precipitate at 5,000×g for 15 minutes, then soluble extracellular polysaccharide was separated and purified from the supernatant and insoluble extracellular polysaccharide from the cell pellet, and then these were quantified. So the experimental results that represent inhibitory effect of medium-chain fatty acids upon extracellular polysaccharide synthesis, are shown in table 1, 2, 3 and 4."}, "S. mutans BHT": {"system": "S. mutans BHT", "assay": "Inhibitory effect on extracellular polysaccharide synthesis, standard strain", "assay_type": "cell-based, Streptococcus mutans", "settings": "1 mM", "method": "as §1, with “quantified.” for “quantified. So the experimental results that represent inhibitory effect of medium-chain fatty acids upon extracellular polysaccharide synthesis, are shown in table 1, 2, 3 and 4.”"}, "S. mutans JC-2": {"system": "S. mutans JC-2", "assay": "Inhibitory effect on extracellular polysaccharide synthesis, standard strain", "assay_type": "cell-based, Streptococcus mutans", "settings": "1 mM", "method": "as §1, with “quantified.” for “quantified. So the experimental results that represent inhibitory effect of medium-chain fatty acids upon extracellular polysaccharide synthesis, are shown in table 1, 2, 3 and 4.”"}, "S. mutans 10449": {"system": "S. mutans 10449", "assay": "Inhibitory effect on extracellular polysaccharide synthesis, standard strain", "assay_type": "cell-based, Streptococcus mutans", "settings": "1 mM", "method": "as §1, with “quantified.” for “quantified. So the experimental results that represent inhibitory effect of medium-chain fatty acids upon extracellular polysaccharide synthesis, are shown in table 1, 2, 3 and 4.”"}, "Streptococcus": {"system": "Streptococcus", "assay": "Inhibitory effect on extracellular polysaccharide synthesis, summary over Streptococcus standard strains", "assay_type": "cell-based", "settings": "1 mM, compared with control group, range over strains, read-out: synthesis of soluble extracellular polysaccharide inhibited by", "method": "as §1, with “quantified.” for “quantified. So the experimental results that represent inhibitory effect of medium-chain fatty acids upon extracellular polysaccharide synthesis, are shown in table 1, 2, 3 and 4.”"}, "[4]": {"assay": "Extracellular polysaccharide in liquid medium with fatty acid, no bacteria", "method": "as §1, with “quantified.” for “quantified. So the experimental results that represent inhibitory effect of medium-chain fatty acids upon extracellular polysaccharide synthesis, are shown in table 1, 2, 3 and 4.”"}, "A. viscosus ATCC 15987": {"system": "A. viscosus ATCC 15987", "assay": "Inhibitory effect on extracellular polysaccharide synthesis, standard strain", "assay_type": "cell-based", "settings": "1 mM, 2% glucose, 24-48 hours", "method": "as §1, with “quantified.” for “quantified. So the experimental results that represent inhibitory effect of medium-chain fatty acids upon extracellular polysaccharide synthesis, are shown in table 1, 2, 3 and 4.”"}, "S. sanguis 10556": {"system": "S. sanguis 10556", "assay": "Inhibitory effect on extracellular polysaccharide synthesis, standard strain", "assay_type": "cell-based", "settings": "1 mM", "method": "as §1, with “quantified.” for “quantified. So the experimental results that represent inhibitory effect of medium-chain fatty acids upon extracellular polysaccharide synthesis, are shown in table 1, 2, 3 and 4.”"}, "Lactobacillus": {"system": "Lactobacillus", "assay": "Inhibitory effect on extracellular polysaccharide synthesis, summary over Lactobacillus standard strains", "assay_type": "cell-based", "settings": "1 mM, compared with control group, according to strains, read-out: synthesis of soluble extracellular polysaccharide inhibited/reduced by", "method": "as §1, with “quantified.” for “quantified. So the experimental results that represent inhibitory effect of medium-chain fatty acids upon extracellular polysaccharide synthesis, are shown in table 1, 2, 3 and 4.”"}, "L. casei ATCC 27216": {"system": "L. casei ATCC 27216", "assay": "Inhibitory effect on extracellular polysaccharide synthesis, standard strain", "assay_type": "cell-based, Lactobacillus casei", "settings": "1 mM, 2% glucose, 24-48 hours", "method": "as §1, with “quantified.” for “quantified. So the experimental results that represent inhibitory effect of medium-chain fatty acids upon extracellular polysaccharide synthesis, are shown in table 1, 2, 3 and 4.”"}, "L. casei ATCC 4646": {"system": "L. casei ATCC 4646", "assay": "Inhibitory effect on extracellular polysaccharide synthesis, standard strain", "assay_type": "cell-based, Lactobacillus casei", "method": "as §1, with “quantified.” for “quantified. So the experimental results that represent inhibitory effect of medium-chain fatty acids upon extracellular polysaccharide synthesis, are shown in table 1, 2, 3 and 4.”"}},
  "data": [
    {"smiles": "CCCCCCCCCC(=O)O", "note": "[C10, sodium capriate]", "values": [
      {"measurement": "inhibitory effect of acid production, sequence", "setting": "[1]", "result": "sodium laurate>sodium capriate>sodium nonanoate"},
      {"measurement": "inhibitory effect of bacterial growth, sequence", "setting": "[2]", "result": "sodium laurate>sodium capriate>sodium nonanoate"},
      {"measurement": "inhibitory effect of extracellular polysaccharide synthesis, sequence", "setting": "[3]", "result": "sodium laurate>sodium capriate>sodium nonanoate"}
    ]},
    {"smiles": "CCCCCCCCC(=O)[O-].[Na+]", "note": "[C9, sodium nonanoate]", "values": [
      {"measurement": "Extracellular polysaccharide, insoluble", "setting": "S. mutans BHT; 2% glucose, 24-48 hours, control 0.5 ± 0.1", "result": "0.3 ± 0.1", "unit": "µg/mL"},
      {"measurement": "inhibition at 1000 µM", "setting": "S. mutans BHT; Streptococcus mutans, vs control, read-out: Inhibitory rate, soluble", "result": 75, "unit": "%"},
      {"measurement": "Extracellular polysaccharide, insoluble", "setting": "S. mutans JC-2; 2% glucose, 24-48 hours, control 1.1 ± 0.2", "result": "0.9 ± 0.3", "unit": "µg/mL"},
      {"measurement": "Extracellular polysaccharide, soluble", "setting": "S. mutans JC-2; 2% glucose, 24-48 hours, control 34.4 ± 3.9", "result": "6.2 ± 3.5", "unit": "µg/mL"},
      {"measurement": "inhibition at 1000 µM", "setting": "S. mutans JC-2; Streptococcus mutans, JC2, vs control, read-out: Inhibitory rate, soluble", "result": 82, "unit": "%"},
      {"measurement": "Extracellular polysaccharide, insoluble", "setting": "S. mutans 10449; 2% glucose, 24-48 hours, control 0.8 ± 0.3", "result": "0.6 ± 0.2", "unit": "µg/mL"},
      {"measurement": "Extracellular polysaccharide, soluble", "setting": "S. mutans 10449; 2% glucose, 24-48 hours, control 74.6 ± 1.8", "result": "50.8 ± 12.2", "unit": "µg/mL"},
      {"measurement": "inhibition at 1000 µM", "setting": "S. mutans 10449; Streptococcus mutans, 10449, vs control, read-out: Inhibitory rate, soluble", "result": 32, "unit": "%"},
      {"measurement": "inhibitory effect of acid production, sequence", "setting": "[1]", "result": "sodium laurate>sodium capriate>sodium nonanoate"},
      {"measurement": "inhibition at 1000 µM", "setting": "Streptococcus", "result": "32 to 82", "unit": "%"},
      {"measurement": "inhibitory effect of bacterial growth, sequence", "setting": "[2]", "result": "sodium laurate>sodium capriate>sodium nonanoate"},
      {"measurement": "Extracellular polysaccharide, soluble", "setting": "[4]; Table 1, 1 mM", "result": "2.0 ± 0.7", "unit": "µg/mL"},
      {"measurement": "Extracellular polysaccharide, soluble", "setting": "[4]; Table 2, 1 mM", "result": "4.6 ± 0.2", "unit": "µg/mL"},
      {"measurement": "Extracellular polysaccharide, soluble", "setting": "[4]; Table 3, 1 mM", "result": "8.2 ± 0.4", "unit": "µg/mL"},
      {"measurement": "inhibitory effect of extracellular polysaccharide synthesis, sequence", "setting": "[3]", "result": "sodium laurate>sodium capriate>sodium nonanoate"},
      {"measurement": "Extracellular polysaccharide, insoluble", "setting": "A. viscosus ATCC 15987; control 2.1 ± 0.2", "result": "1.4 ± 0.5", "unit": "µg/mL"},
      {"measurement": "Extracellular polysaccharide, soluble", "setting": "A. viscosus ATCC 15987; control 222.8 ± 3.3", "result": "241.6 ± 3.9", "unit": "µg/mL"},
      {"measurement": "Extracellular polysaccharide, insoluble", "setting": "S. sanguis 10556; 2% glucose, 24-48 hours, control 0.6 ± 0.3", "result": "0.5 ± 0.2", "unit": "µg/mL"},
      {"measurement": "Extracellular polysaccharide, soluble", "setting": "S. sanguis 10556; 2% glucose, 24-48 hours, control 25.9 ± 4.3", "result": "17.4 ± 8.9", "unit": "µg/mL"},
      {"measurement": "inhibition at 1000 µM", "setting": "S. sanguis 10556; vs control, read-out: Inhibitory rate, soluble", "result": 33, "unit": "%"},
      {"measurement": "inhibition at 1000 µM", "setting": "Lactobacillus", "result": 27, "unit": "%"},
      {"measurement": "Extracellular polysaccharide, insoluble", "setting": "L. casei ATCC 27216; control 5.9 ± 0.4", "result": "5.1 ± 0.5", "unit": "µg/mL"},
      {"measurement": "Extracellular polysaccharide, soluble", "setting": "L. casei ATCC 27216; control 67.3 ± 4.5", "result": "70.1 ± 3.3", "unit": "µg/mL"},
      {"measurement": "Extracellular polysaccharide, insoluble", "setting": "L. casei ATCC 4646; 1 mM, 2% glucose, 24-48 hours, control 5.3 ± 0.5", "result": "3.8 ± 0.5", "unit": "µg/mL"},
      {"measurement": "Extracellular polysaccharide, soluble", "setting": "L. casei ATCC 4646; 1 mM, 2% glucose, 24-48 hours, control 43.6 ± 7.0", "result": "31.9 ± 4.0", "unit": "µg/mL"},
      {"measurement": "inhibition at 1000 µM", "setting": "L. casei ATCC 4646; Lacticaseibacillus casei, ATCC4646, read-out: Inhibitory rate, soluble", "result": 27, "unit": "%"}
    ]}
  ]
}
